According to patent US12239661B2, “Methods and compositions for treating undesired implanted tissue filler” (priority 2019, dated 2025):
Values joined by “and” are separate entries in the source; they are usually repeats but may differ in a detail not shown here. Equal entries are not always repeated. Marks after values point to notes of the source that are not given here.

Assay: X-ray CT of volume, mean density and 3D shape of Radiesse nodules and injected hyperosmotic solutions (Example 4)
Format: in vivo, Pig (Sus scrofa domesticus)
Settings: for Change in Volume as percent of Injected Volume, Day 14/15: Example 4 (Day 15); for Change in Volume as percent of Injected Volume, Day 14/15 / Change in Volume as percent of Injected Volume, Day 0 + 1 h 15 / Change in Volume as percent of Injected Volume, Day 0 + 2 h / Change in Volume as percent of Injected Volume, Day 0 + 4 h / Change in Volume as percent of Injected Volume, Day 1 / Change in Volume as percent of Injected Volume, Day 3 / Change in Volume as percent of Injected Volume, Day 7: mean; for Change in Volume as percent of Injected Volume, Day 0 + 1 h 15 / Change in Volume as percent of Injected Volume, Day 0 + 2 h / Change in Volume as percent of Injected Volume, Day 0 + 4 h / Change in Volume as percent of Injected Volume, Day 1 / Change in Volume as percent of Injected Volume, Day 3 / Change in Volume as percent of Injected Volume, Day 7: Example 4
Protocol: Pigs are injected by SC route with Radiesse® filler without Lidocaine (Test item). One hour after the Radiesse® filler injection, selected different hyperosmotic solutions are injected by SC route into the dermal filler nodules. For two Radiesse® filler nodules per pig, no additional product is injected; these nodules are used as controls.
The evolution over time of the volume and mean density of the Radiesse® filler nodules with injection of the different solutions are assessed by CT-scanner at selected time points: on Day 0, at about 1 hour (h) and 15 minutes (min), 2 h and 4 h after the Radiesse® filler injection and solution injection, and then, on Day 1 (about 24 h after Radiesse® filler injection), Day 3, Day 7 and Day 15.
On Day 0, 4 pigs received ten (10) SC injections of Radiesse® dermal filler (P20WK-EE-01) of about 500 μl/nodule in the flank (ventral area) at T=0. One hour after Radiesse® dermal filler injections (T=1 h), about 1.5 ml of different hyperosmotic solutions (P20WK-EE-02 to P20WK-EE-05) were each injected into 8 Radiesse® filler nodules. Two Radiesse® filler nodules per animal were not injected with hyperosmotic solution and served as controls.
A total of 7 CT-scans were performed at 1 h 15±10 min, 2 h±15 min, 4 h±20 min, 1 day (24 h±1 h), 3, 7 and 15 days after injection of the dermal filler, as described in FIG. 9A.
On Day 0 (TO), 10 SC injections of test item P20WK-EE-01 (Radiesse® dermal filler) were performed in the ventral area (five nodules on each flank of the ventral area). For each SC nodule, a theoretical volume of 500 μL was administered. One hour (±5 min) after injection of dermal filler, SC injections of the different solutions (prepared on Day −3) were performed into 8 nodules of dermal filler. For each injection of solution, a theoretical volume of 1.5 mL was administered (see, e.g., injection scheme in Table 11).
In order to measure the volume, the mean density and to visualize the 3D shape of the dermal filler SC injected (in presence or absence of different hyperosmotic solutions), in vivo CT-scans were performed on Day 0: 1 h 15 (±10 min), 2 h (±15 min) and 4 h (±20 min), on Day 1 (24 h±1 h), Day 3, Day 7 and Day 15.
The CT acquisitions are analyzed with the software Avizo version 9.2.0. The objective of this analysis was to assess the dispersion over time of the Radiesse® dermal filler injected by SC route after injection of different hyperosmotic solutions.
To achieve this goal, the evolution of these parameters is observed over time: • the volume of each nodule (Radiesse® dermal filler and solution separately), • the mean density of each nodule (Radiesse® dermal filler and solution separately), • the 3D shape of each nodule by visualization of the 3D model of each nodule at each time point (Radiesse® dermal filler with or without solution separately). Segmentation:
An image segmentation is performed on each CT acquisition on the […] reconstruction. At first, a manual pre-segmentation is performed around each nodule in order to roughly isolate the voxels corresponding to Radiesse® dermal filler and hyperosmotic solutions and defined a Region of Interest (ROI). Secondly, an automatic segmentation is applied on the ROI previously defined using a global grey level thresholding procedure. […] Similarly, all the voxels having a grey level between these HU values are selected in a ROI and corresponds to the pure solution or solution containing some dispersed Radiesse® dermal filler (see, FIG. 10).
Then, a 3D model of these selected voxels (see, FIG. 11) is obtained allowing the calculation of the total volume (in mm^3) and the mean density (in HU) of the two defined compartments of each nodule of Pure Radiesse® dermal filler and of each solution containing or not containing dispersed Radiesse® dermal filler.
The volume (in mm^3) of the ROI of Radiesse® dermal filler and the solutions corresponding to each nodule and the mean density (in HU) of each nodule are calculated at each time point.

[1] = individual nodules, [+250, +∞] HU, listed as Radiesse + Fructose
[2] = mean of 8 nodules, [+250, +∞] HU

SMILES	Change in Volume as percent of Injected Volume, Day 14/15 [%]	Change in Volume as percent of Injected Volume, Day 0 + 1 h 15	Change in Volume as percent of Injected Volume, Day 0 + 2 h [%]	Change in Volume as percent of Injected Volume, Day 0 + 4 h [%]	Change in Volume as percent of Injected Volume, Day 1 [%]	Change in Volume as percent of Injected Volume, Day 3 [%]	Change in Volume as percent of Injected Volume, Day 7 [%]	average of the mean density of solution nodules, T=1 h 15 (between −100 HU and 250 HU) [HU]	variation of the average of the mean density of solutions, Day 15 compared to T=1 h 15 (between −100 HU and 250 HU) [%]	average of the mean density of nodules, Day 1 (pure Radiesse >250 HU) [HU]	average of the mean density of nodules, Day 3 (pure Radiesse >250 HU) [HU]	further results
O=C(CO)[C@@H](O)[C@H](O)[C@H](O)CO [sol 11, Fructose]	1930	1581* percent	1610	1871	2285	1959	2002	58.6±6.2	34.7	424.6±31.6	505.0±72.2	average of the mean density of solution nodules, T=4 h (between −100 HU and 250 HU): −1.0±7.7 HU; mean volume of solution with potential dispersed Radiesse, Day 15 (between −100 HU and 250 HU): 883.9±269.9 mm^3; mean volume of solution with potential dispersed Radiesse, T+4 h (between −100 HU and 250 HU): 7000.8±1389.9 mm^3; variation of solution volume on Day 15 compared to the injected volume on T=1 h (between −100 HU and 250 HU): −42.8%; Nodule volume, Day 0 + 1 h 15 [1]: 799.1 mm^3 and 845.1 mm^3 and 739.4 mm^3 and 852.5 mm^3 and 760.4 mm^3 and 837.5 mm^3 and 793.0 mm^3 and 710.6 mm^3; Nodule volume, Day 0 + 2 h [1]: 795.9 mm^3 and 856.3 mm^3 and 750.5 mm^3 and 863.0 mm^3 and 770.1 mm^3 and 898.7 mm^3 and 808.3 mm^3 and 712.1 mm^3; Nodule volume, Day 0 + 4 h [1]: 1039.3 mm^3 and 957.8 mm^3 and 861.1 mm^3 and 985.4 mm^3 and 902.9 mm^3 and 1039.4 mm^3 and 912.1 mm^3 and 796.2 mm^3; Nodule volume, Day 1 [1]: 1168.5 mm^3 and 1120.2 mm^3 and 1122.3 mm^3 and 1226.3 mm^3 and 1085.5 mm^3 and 1165.0 mm^3 and 1153.8 mm^3 and 1115.5 mm^3; Nodule volume, Day 3 [1]: 1043.6 mm^3 and 1039.7 mm^3 and 961.0 mm^3 and 1053.3 mm^3 and 969.6 mm^3 and 992.2 mm^3 and 891.2 mm^3 and 897.7 mm^3; Nodule volume, Day 7 [1]: 1041.9 mm^3 and 1040.7 mm^3 and 1239.0 mm^3 and 1200.9 mm^3 and 879.3 mm^3 and 953.1 mm^3 and 833.5 mm^3 and 838.3 mm^3; Nodule volume, Day 15 [1]: 997.7 mm^3 (2×) and 997.2 mm^3 and 944.9 mm^3 and 1054.8 mm^3 and 923.5 mm^3 and 912.9 mm^3 and 905.4 mm^3; Mean nodule volume, Day 0 + 1 h 15 [2]: 792.2 mm^3; Mean nodule volume, Day 0 + 2 h [2]: 806.9 mm^3; Mean nodule volume, Day 0 + 4 h [2]: 936.8 mm^3; Mean nodule volume, Day 1 [2]: 1144.6 mm^3; Mean nodule volume, Day 3 [2]: 981.0 mm^3; Mean nodule volume, Day 7 [2]: 1003.3 mm^3; Mean nodule volume, Day 15 [2]: 966.8±52.9 mm^3; Mean nodule volume, Day 15 (mean of 8 nodules, [+250, +∞] HU, listed as Radiesse + Fructose): 966.8 mm^3; average of the mean density of nodules, Day 15 (pure Radiesse >250 HU): 512.9±57.4 HU
O.O.O=C([O-])CC(O)(CC(=O)[O-])C(=O)[O-].[Na+].[Na+].[Na+] [sol 9, Sodium citrate, dihydrate]	1969	1488%	1571	1901	2210	2010	2243	18.4±7.0	347.7	447.0±34.1	478.2±64.8	average of the mean density of solution nodules, T=2 h (between −100 HU and 250 HU): 2.1±7.9 HU; mean volume of solution with potential dispersed Radiesse, T=2 h (between −100 HU and 250 HU): 4319.7±989.2 mm^3
